Data as given in patent publication US20240417410A1, “TRICYCLIC COMPOUNDS FOR THE TREATMENT OF CANCER” (Hoffmann-La Roche Inc., priority 2023, published 2024).

Assays:
[1] = system: phosphorylation of ERK, KRAS G12V in SW620; test: pERK inhibition assay; type: cell-based; conditions: Homo sapiens, SW-620, 4 h, SW620 cells
Description: (§1) This assay is to measure the ability of test compounds in inhibiting the phosphorylation of ERK, the downstream signaling of KRAS G12C in NCI-H358 cells, KRAS G12D in AGS cells, and KRAS G12V in SW620. NCI-H358 (ATCC-CRL5807) cells, AGS (ATCC-CRL-1739) cells, SW620 (ATCC-CCL-227) cells were all grown and maintained using RPMI-1640 medium (Thermo Fisher Scientific) with 10% fetal bovine serum and 1% penicillin/streptomycin. On the day prior to compound addition, cells were plated in tissue culture-treated 96 well plates (Corning-3699) at a density of 30,000 cell/well, 20,000 cell/well, 30,000 cell/well for NCI-H358, AGS and SW620 respectively, and allowed for attachment overnight. Diluted compounds were then added in a final concentration of 0.5% DMSO. After 4 hours of incubation, the medium was removed, 100 μL of 4% formaldehyde was added, and the assay plates were incubated at room temperature for 20 minutes. The plates were then washed once with phosphate buffered saline (PBS), and permeabilized with 100 μL of chilled methanol for 10 minutes. Non-specific antibody binding to the plates was blocked using 50 μL 1X BSA blocking buffer (Thermo-37520, 10-fold dilution by Phosphate-Buffered Saline Tween (PBST) for at least 1 hour at room temperature.
(§2) The amount of phosphor-ERK was determined using an antibody specific for phosphorylated form of ERK. Primary antibody (PERK, CST-4370, Cell Signaling Technology) was diluted 1:300 in blocking buffer, with 50 μL aliquoted to each well, and incubated overnight at 4° C. Cells was washed five times for 5 minutes with PBST. Secondary antibody (HRP-linked anti-rabbit IgG, CST-7074, Cell Signaling Technology) was diluted 1:1000 in blocking buffer, and 50 μL was added to each well and incubated 1-2 hrs at room temperature. Cells was washed […] for 5 minutes with PBST, 100 μL TMB ELISA substrate (abcam-ab171523) were added and gently shake for 20 minutes. 50 μL stop solution (abcam-ab 171529) were added, and then read the signal (OD450) by EnVision.
(§3) IC50 was determined by fitting a 4-parameter sigmoidal concentration response model.

[2] = system: phosphorylation of ERK, KRAS G12D in AGS cells; test: pERK inhibition assay; type: cell-based; conditions: Homo sapiens, AGS, 4 h
Description: as §1, §2, §3

[3] = system: phosphorylation of ERK, KRAS G12C in NCI-H358 cells; test: pERK inhibition assay; type: cell-based; conditions: Homo sapiens, NCI-H358, 4 h
Description: as §1, §2, §3

[4] = system: NCI-H358 cells (KRAS G12C); test: Cell viability assay (Cell Counting Kit-8, 3-day); type: cell-based, human; conditions: Homo sapiens, NCI-H358, 72 h, NCI-H358, 72 hrs incubation
Description: (§4) The purpose of this cellular assay was to determine the effects of test compounds on the proliferation of human cancer cell lines NCI-H358 (ATCC-CRL5807) cells, AGS (ATCC-CRL-1739) cells, SW620 (ATCC-CCL-227) over a 3-day treatment period by quantifying the amount of NADPH present at endpoint using Cell Counting Kit-8.
(§5) Cells were seeded at 5,000 cells/well (NCI-H358), 2,000 cells/well (AGS) 2,000 cells/well (SW620) in 96-well assay plates (Corning-3699) and incubated overnight. On the day of the assay, diluted compounds were then added in a final concentration of 0.5% DMSO. After 72 hrs incubation, a tenth of the volume of cell counting kit 8 (Dnjindo-CK04) was added into each well. Read the signal (OD450 minus OD650) using EnVision after 2 hrs incubation. IC50 was determined by fitting a 4-parameter sigmoidal concentration response model.

[5] = system: SW620 cells (KRAS G12V); test: Cell viability assay (Cell Counting Kit-8, 3-day); type: cell-based, human; conditions: Homo sapiens, SW-620; SW620, 72 hrs incubation
Description: as §4, §5

[6] = system: AGS cells (KRAS G12D); test: Cell viability assay (Cell Counting Kit-8, 3-day); type: cell-based, human; conditions: Homo sapiens, 72 h, 72 hrs incubation
Description: as §4, §5

IC50 [1] [nM] | IC50 [2] [nM] | IC50 [3] [nM] | IC50 [4] [nM] | IC50 [5] [nM] | IC50 [6] [nM] | Structure (SMILES)
1.4 | 16.2 | 1.6 | 13.2 | 3.2 | 57 | CO[C@@H](C)c1ncc(N2CCOCC2)cc1-c1c2c3cc(cc4c3n1CC(F)(F)C4)-c1csc(n1)C[C@H](NC(=O)[C@H]1C[C@@H]1c1ccccc1)C(=O)N1CCC[C@H](N1)C(=O)OCC(C)(C)C2 (atropisomer, axis not shown; (M)) [Example 79, (1S,2S)-N-[(7S,13S)-23,23-difluoro-(20M)-20-[2-[(1S)-1-methoxyethyl]-5-morpholino-3-pyridyl]-17,17-dimethyl-8,14-dioxo-15-oxa-4-thia-9,21,30,31-tetrazahexacyclo[23.3.1.1^2,5.1^9,13.0^19,27.0^21,26]hentriaconta-1 (28),2,5 (31),19,25 (29),26-hexaen-7-yl]-2-phenyl-cyclopropanecarboxamide]
3 | 50 | 5 | 40 | 7 | 757 | CO[C@@H](C)c1ncc(N2CCOCC2)cc1-c1c2c3cc(cc4c3n1CCCC4)-c1csc(n1)C[C@H](NC(=O)[C@H]1[C@H](C)[C@@H]1C)C(=O)N1CCC[C@H](N1)C(=O)OCC(C)(C)C2 [Example 126, (1r,2R,3S)-N-[(7S,13S)-(20M)-20-[2-[(1S)-1-methoxyethyl]-5-morpholino-3-pyridyl]-17,17-dimethyl-8,14-dioxo-15-oxa-4-thia-9,21,31,32-tetrazahexacyclo[24.3.1.1^2,5.1^9,13.0^19,28.0^19,28.0^21,27]dotriaconta-1 (29),2,5 (32),19,26 (30),27-hexaen-7-yl]-2,3-dimethyl-cyclopropanecarboxamide]
5.5 | 27.9 | 1.8 | 24.7 | 17.9 | 98.7 | CO[C@@H](C)c1ncc(N2CCN(C)CC2)cc1-c1c2c3cc(cc4c3n1CCC4)-c1csc(n1)C[C@H](NC(=O)[C@H]1CC[C@H](c3nnnn3C)CC1)C(=O)N1CCC[C@H](N1)C(=O)OCC(C)(C)C2 (atropisomer, axis not shown; (M)) [Example 70, trans-N-[(7S,13S)-(20M)-20-[2-[(1S)-1-methoxyethyl]-5-(4-methylpiperazin-1-yl)-3-pyridyl]-17,17-dimethyl-8,14-dioxo-15-oxa-4-thia-9,21,30,31-tetrazahexacyclo[23.3.1.1^2,5.1^9,13.0^19,27.0^21,26]hentriaconta-1 (29),2,5 (31),19,25,27-hexaen-7-yl]-4-(1-methyltetrazol-5-yl)cyclohexanecarboxamide]
5.5 | 59.4 | 8 | 89.4 | 18 | 120 | CO[C@@H](C)c1ncc(N2CCOCC2)cc1-c1c2c3cc(cc4c3n1CC(C)(C)O4)-c1csc(n1)C[C@H](NC(=O)[C@H]1C[C@@H]1C)C(=O)N1CCC[C@H](N1)C(=O)OCC(C)(C)C2 (atropisomer, axis not shown; (M)) [Example 38, (1S,2S)-N-[(7S,13S)-(20M)-20-[2-[(1S)-1-methoxyethyl]-5-morpholino-3-pyridyl]-17,17,23,23-tetramethyl-8,14-dioxo-15,24-dioxa-4-thia-9,21,30,31-tetrazahexacyclo[23.3.1.1^2,5.1^9,13.0^19,27.0^21,26]hentriaconta-1 (28),2,5 (31),19,25 (29),26-hexaen-7-yl]-2-methyl-cyclopropanecarboxamide]
4.9 | 20.5 | 6.4 | 7.6 | 2 | 38.5 | CO[C@@H](C)c1ncc(N2CCN(C)CC2)cc1-c1c2c3cc(cc4c3n1CCC4)-c1csc(n1)C[C@H](NC(=O)[C@@H]1C[C@H]1c1ccncc1)C(=O)N1CCC[C@H](N1)C(=O)OCC(C)(C)C2 [Example 58, (1R,2R)-N-[(7S,13S)-(20M)-20-[2-[(1S)-1-methoxyethyl]-5-(4-methylpiperazin-1-yl)-3-pyridyl]-17,17-dimethyl-8,14-dioxo-15-oxa-4-thia-9,21,30,31-tetrazahexacyclo[23.3.1.1^2,5.1^9,13.0^19,27.0^21,26]hentriaconta-1 (28),2,5 (31),19,25 (29),26-hexaen-7-yl]-2-(4-pyridyl)cyclopropanecarboxamide]
1.6 | 19.8 | 2.3 | 3.1 | < 0.6 | 21.8 | CO[C@@H](C)c1ncc(N2CCN(C)CC2)cc1-c1c2c3cc(cc4c3n1CC(F)(F)C4)-c1csc(n1)C[C@H](NC(=O)[C@H]1C[C@@H]1C(F)F)C(=O)N1CCC[C@H](N1)C(=O)OCC(C)(C)C2 (atropisomer, axis not shown; (M)) [Example 31]
1.3 | 6.1 | 1.1 | 5.4 | 1.5 | 27.6 | CO[C@@H](C)c1ncc(N2CCN(C)CC2)cc1-c1c2c3cc(cc4c3n1CCC4)-c1csc(n1)C[C@H](NC(=O)[C@H]1C[C@@H]1c1ccncc1)C(=O)N1CCC[C@H](N1)C(=O)OCC(C)(C)C2 [Example 57, (1S,2S)-N-[(7S,13S)-(20M)-20-[2-[(1S)-1-methoxyethyl]-5-(4-methylpiperazin-1-yl)-3-pyridyl]-17,17-dimethyl-8,14-dioxo-15-oxa-4-thia-9,21,30,31-tetrazahexacyclo[23.3.1.1^2,5.1^9,13.0^19,27.0^21,26]hentriaconta-1 (28),2,5 (31), 19,25 (29),26-hexaen-7-yl]-2-(4-pyridyl)cyclopropanecarboxamide]
30 | 697 | 30 | 1000 | 27 | 1000 | CO[C@@H](C)c1ncc(N2CCN(C)CC2)cc1-c1c2c3cc(cc4c3n1CCCCC4)-c1csc(n1)C[C@H](NC(=O)[C@H]1[C@H](C)[C@@H]1C)C(=O)N1CCC[C@H](N1)C(=O)OCC(C)(C)C2 [Example 127, (1r,2R,3S)-N-[(7S,13S)-(20M)-20-[2-[(1S)-1-methoxyethyl]-5-(4-methylpiperazin-1-yl)-3-pyridyl]-17,17-dimethyl-8,14-dioxo-15-oxa-4-thia-9,21,32,33-tetrazahexacyclo[25.3.1.1^2,5.1^9,13.0^19,29.0^21,28]tritriaconta-1 (30),2,5 (33),19,27 (31),28-hexaen-7-yl]-2,3-dimethyl-cyclopropanecarboxamide]
2.7 | 20.7 | 1.9 | 17.1 | 3.8 | 98.7 | CO[C@@H](C)c1ncc(N2CCN(C)CC2)cc1-c1c2c3cc(cc4c3n1CCC4)-c1csc(n1)C[C@H](NC(=O)C1(C)CC1(F)F)C(=O)N1CCC[C@H](N1)C(=O)OCC(C)(C)C2 (stereo partly drawn) [Example 19, 2,2-difluoro-N-[(7S,13S)-(20M)-20-[2-[(1S)-1-methoxyethyl]-5-(4-methylpiperazin-1-yl)-3-pyridyl]-17,17-dimethyl-8,14-dioxo-15-oxa-4-thia-9,21,30,31-tetrazahexacyclo[23.3.1.1^2,5.1^9,13.0^19,27.0^21,26]hentriaconta-1 (28),2,5 (31),19,25 (29),26-hexaen-7-yl]-1-methyl-cyclopropanecarboxamide]
